The record followed here is ChEMBL document CHEMBL3244320, “2-Acetylpyridine thiosemicarbazones. 1. A new class of potential antimalarial agents” (J Med Chem, 1979).

Activity calls are given as the source filed them. No cut-off for these calls is given here.

In series [1] the test system is Plasmodium berghei. Description: Antimalarial activity against Plasmodium berghei KBG 173 infected in ICR/HA Swiss mouse assessed as increase in mean survival time at 320 mg/kg, sc administered 72 hrs post infection. It is filed as functional. As to conditions: route subcutaneous.
In series [2] the test system is Plasmodium berghei. As to the kind of experiment: Antimalarial activity against Plasmodium berghei KBG 173 infected in ICR/HA Swiss mouse assessed as increase in mean survival time at 160 mg/kg, sc administered 72 hrs post infection. The following applies: route subcutaneous. It is filed as functional.
The subject of series [3] is Plasmodium berghei. As to the kind of experiment: Antimalarial activity against Plasmodium berghei KBG 173 infected in ICR/HA Swiss mouse assessed as increase in mean survival time at 80 mg/kg, sc administered 72 hrs post infection. The following applies: route subcutaneous. It is filed as functional.
The subject of series [4] is Plasmodium berghei. Description: Antimalarial activity against Plasmodium berghei KBG 173 infected in ICR/HA Swiss mouse assessed as increase in mean survival time at 640 mg/kg, sc administered 72 hrs post infection. As to conditions: route subcutaneous. The class given is functional.
The test system of series [5] is Plasmodium berghei. As to the kind of experiment: Antimalarial activity against Plasmodium berghei KBG 173 infected in ICR/HA Swiss mouse assessed as increase in mean survival time at 40 mg/kg, sc administered 72 hrs post infection. The class given is functional. As to conditions: route subcutaneous.
In series [6] the test system is Plasmodium berghei. Description: Antimalarial activity against Plasmodium berghei KBG 173 infected in ICR/HA Swiss mouse at 40 to 640 mg/kg, sc administered 72 hrs post infection. It is filed as functional, organism-based.
Series [7] concerns Mus musculus. Description: Toxicity in ICR/HA Swiss mouse infected with Plasmodium berghei KBG 173 assessed as mortality at 640 mg/kg, sc administered 72 hrs post infection measured for 6 days. On the set-up: dose 640 mg/kg, route subcutaneous. The class given is organism-based. The following applies: in vivo, 144 h.
For series [8], the system named is Plasmodium berghei. Description: Antimalarial activity against Plasmodium berghei KBG 173 infected in ICR/HA Swiss mouse assessed as curative effect at 320 mg/kg, sc administered 72 hrs post infection. It is filed as functional, organism-based. The arrangement: dose 320 mg/kg.
Series [9] has as its system Plasmodium berghei. Description: Antimalarial activity against Plasmodium berghei KBG 173 infected in ICR/HA Swiss mouse assessed as curative effect at 160 mg/kg, sc administered 72 hrs post infection. The class given is functional, organism-based. On the set-up: dose 160 mg/kg.
The subject of series [10] is Mus musculus. Description: Toxicity in ICR/HA Swiss mouse infected with Plasmodium berghei KBG 173 assessed as mortality at 320 mg/kg, sc administered 72 hrs post infection measured for 6 days. The class given is organism-based. The arrangement: dose 320 mg/kg, route subcutaneous. The following applies: in vivo, 144 h.

Regarding `C/C(=N\NC(=S)Nc1c(C)cccc1C)c1ccccn1`, the MST in the series on Plasmodium berghei [1] came out at 5.8 days; with Plasmodium berghei [2], 2 days; in the series on Plasmodium berghei [3] it was 0.4 days; in the series with Plasmodium berghei [4] it was 11.4 days; in the series with Plasmodium berghei [5], 0.4 days.
For `C/C(=N\NC(=S)NC12CC3CC(CC(C3)C1)C2)c1cccnc1`, the result with Plasmodium berghei [6] was inactive.
On to `C/C(=N\NC(=S)Nc1ccccc1)c1ccncc1`, for which, in the series with Plasmodium berghei [6], the result was inactive.
`Br.CCN(CC)CCCC(C)NC(=S)N/N=C(\C)c1ccccn1` (stereo unspecified): in the series with Mus musculus [7], the Activity entry was “Toxic”. Also, the MST with Plasmodium berghei [5] stood at 0.3 days.
Consider `C/C(=N\NC(=S)NCCc1ccccc1)c1ccccn1`, for which the MST in the series on Plasmodium berghei [1] is 6.6 days; with Plasmodium berghei [2], 2 days; in the series on Plasmodium berghei [3], 0.6 days; in the series on Plasmodium berghei [4], 8.8 days; in the series with Plasmodium berghei [5] it was -0.2 days.
Take `C/C(=N\NC(=O)Nc1ccccc1)c1ccccn1`: the outcome with Plasmodium berghei [6] was inactive.
Take `C/C(=N\NC(=S)Nc1cccc(C)c1)c1ccccn1`: the MST in the series on Plasmodium berghei [1] was found to be 10.3 days; in the series on Plasmodium berghei [2] it was 7.4 days; in the series with Plasmodium berghei [3], 3 days; with Plasmodium berghei [5] it was 0.4 days. The outcome in the series with Plasmodium berghei [8] was Active.
For the molecule `C/C(=N\NC(=S)NC(C)(C)CC(C)(C)C)c1ccccn1`, the MST is 2.9 days in the series on Plasmodium berghei [1]; 0.9 days in the series with Plasmodium berghei [2]; 1.3 days in the series on Plasmodium berghei [3]; 8.7 days in the series with Plasmodium berghei [4]; 1.1 days with Plasmodium berghei [5].
On to `C/C(=N\NC(=S)Nc1cccc(Cl)c1)c1ccccn1`, for which the MST in the series on Plasmodium berghei [1] worked out at 5.1 days; in the series with Plasmodium berghei [2], 2.5 days; in the series on Plasmodium berghei [3], 0.3 days; in the series on Plasmodium berghei [4] it was 7.1 days; in the series on Plasmodium berghei [5] it was 0.3 days.
For the molecule `C/C(=N\NC(=S)NC1CCCCCCC1)c1ccccn1`, the MST in the series on Plasmodium berghei [1] was determined as 4.8 days; in the series with Plasmodium berghei [2], 3.4 days; in the series on Plasmodium berghei [3], 1.2 days; with Plasmodium berghei [4], 10.7 days; in the series on Plasmodium berghei [5], 1.1 days. Further, the result in the series on Plasmodium berghei [9] was Active.
On to `Br.C/C(=N\NC(=S)NCC(C)N(C)C)c1ccccn1` (stereo unspecified), for which the Activity entry with Mus musculus [7] is on record as “Toxic”. The MST in the series with Plasmodium berghei [5] is 0.1 days.
Turning to `C/C(=N\NC(=S)NCc1ccc(Cl)cc1)c1ccccn1`, the MST in the series with Plasmodium berghei [1] came out at 4.3 days; in the series on Plasmodium berghei [2], 2.1 days; with Plasmodium berghei [3], 0.5 days; with Plasmodium berghei [4], 6.9 days; in the series on Plasmodium berghei [5] it was 0.5 days.
As for `COc1ccc(CNC(=S)N/N=C(\C)c2ccccn2)cc1`, the MST with Plasmodium berghei [1] came out at 5.9 days; with Plasmodium berghei [2], 2.9 days; with Plasmodium berghei [3] it was 1.7 days; in the series on Plasmodium berghei [4], 7.9 days; with Plasmodium berghei [5] it was 0.3 days.
With `C/C(=N\NC(=S)NCc1ccccc1C)c1ccccn1`, the MST is 7.7 days with Plasmodium berghei [1]; 5.9 days in the series on Plasmodium berghei [2]; 2.5 days in the series on Plasmodium berghei [3]; 8.9 days in the series on Plasmodium berghei [4]; 0.1 days in the series on Plasmodium berghei [5]. Besides, the result in the series with Plasmodium berghei [9] was Active.
Take `C=CCNC(=S)N/N=C(\C)c1ccccn1`: the MST in the series with Plasmodium berghei [1] stood at 3 days; in the series on Plasmodium berghei [2] it was 3.1 days; with Plasmodium berghei [3], 2.3 days; in the series on Plasmodium berghei [5], 0.5 days. Moreover, the Activity result in the series with Mus musculus [7] is listed as “Toxic”.
As for `COc1cccc(CNC(=S)N/N=C(\C)c2ccccn2)c1`, the MST with Plasmodium berghei [1] was 4.5 days; in the series on Plasmodium berghei [2], 0.9 days; in the series with Plasmodium berghei [3], 0.3 days; with Plasmodium berghei [4], 5.9 days; in the series on Plasmodium berghei [5] it was 0.3 days.
Regarding `C/C(=N\NC(=S)Nc1ccccc1)c1cccnc1`, the outcome with Plasmodium berghei [6] was inactive.
For `C/C(=N\NC(=S)Nc1ccccn1)c1ccccn1`, the MST with Plasmodium berghei [1] is 6.5 days; with Plasmodium berghei [2], 4.5 days; in the series on Plasmodium berghei [3], 2.7 days; in the series on Plasmodium berghei [4], 8.1 days; in the series with Plasmodium berghei [5], 1.5 days.
With `COc1ccccc1NC(=S)N/N=C(\C)c1ccccn1`, the MST is 4.6 days in the series with Plasmodium berghei [1]; 2 days with Plasmodium berghei [2]; 0.4 days in the series on Plasmodium berghei [3]; 6.6 days with Plasmodium berghei [4]; 0.1 days in the series on Plasmodium berghei [5].
Consider `COc1ccccc1CNC(=S)N/N=C(\C)c1ccccn1`, for which the MST with Plasmodium berghei [1] is 3.5 days; in the series with Plasmodium berghei [2] it was 1.3 days; with Plasmodium berghei [3], 0.3 days; in the series with Plasmodium berghei [4], 6.9 days; in the series with Plasmodium berghei [5] it was 0.1 days.
As to `CCN(CC)Cc1cc(NC(=S)N/N=C(\C)c2ccccn2)ccc1O.Cl.O`, the MST in the series with Plasmodium berghei [2] came out at 8.8 days; in the series on Plasmodium berghei [3], 5.6 days; with Plasmodium berghei [5] it was 2 days. In addition, in the series with Mus musculus [10], the Activity result is given as “Toxic”.
On to `CCc1ccc(NC(=S)N/N=C(\C)c2ccccn2)cc1`, for which the MST in the series on Plasmodium berghei [1] is 3.1 days; in the series with Plasmodium berghei [2], 2.1 days; in the series with Plasmodium berghei [3], 1.5 days; with Plasmodium berghei [4], 5.7 days; with Plasmodium berghei [5] it was 0.3 days.
For `C/C(=N\NC(=S)NCc1ccc(C)cc1C)c1ccccn1` the same measures were 6.1 days, 3.1 days, 0.1 days, 8.9 days and 0.5 days.
In the same order, the values of `C/C(=N\NC(=S)Nc1ccc(Cl)cc1)c1ccccn1` are 4.3 days, 1.7 days, 1.5 days, 8.3 days and 0.5 days.
On to `C/C(=N\NC(=S)Nc1ccccn1)c1cccnc1`, for which the outcome with Plasmodium berghei [6] was inactive.
Same read-out and setting: the result for `C/C(=N\NC(=S)Nc1ccccn1)c1ccncc1` reads “inactive”; that for `C/C(=N\NC(=S)NC12CC3CC(CC(C3)C1)C2)c1ccncc1`, “inactive”.
Consider `C/C(=N\NC(=S)Nc1ccc(C(C)C)cc1)c1ccccn1`, for which the MST with Plasmodium berghei [1] is 5.9 days; with Plasmodium berghei [2], 2.1 days; in the series with Plasmodium berghei [3], 1.9 days; in the series on Plasmodium berghei [4] it was 5.5 days; in the series with Plasmodium berghei [5], 0.5 days.
As for `Br.CCN(CC)CCNC(=S)N/N=C(\C)c1ccccn1`, the MST with Plasmodium berghei [2] stood at 0.5 days; in the series on Plasmodium berghei [5], 0.3 days. Also, the Activity result in the series with Mus musculus [7] and in the series with Mus musculus [10] was “Toxic” in each case.
As to `C/C(=N\NC(=S)NC12CC3CC(CC(C3)C1)C2)c1ccccn1`, the MST was determined as 8.5 days in the series on Plasmodium berghei [1]; 3.7 days in the series on Plasmodium berghei [2]; 1.1 days in the series on Plasmodium berghei [3]; 9.2 days with Plasmodium berghei [4]; 0.7 days with Plasmodium berghei [5].
Regarding `C/C(=N\NC(=S)Nc1ccc(C)cc1)c1ccccn1`, the MST in the series on Plasmodium berghei [2] was determined as 4.5 days; in the series with Plasmodium berghei [3], 2.1 days; with Plasmodium berghei [5], 0.3 days. For the same molecule, the outcome with Plasmodium berghei [8] was Active.
Consider `CCc1ccccc1NC(=S)N/N=C(\C)c1ccccn1`, for which the MST in the series with Plasmodium berghei [1] amounted to 3.1 days; in the series with Plasmodium berghei [2] it was 0.7 days; in the series with Plasmodium berghei [3], 0.3 days; with Plasmodium berghei [4], 5.1 days; with Plasmodium berghei [5] it was 0.3 days.
As to `C/C(=N\NC(=S)Nc1ccccc1C)c1ccccn1`, the MST in the series on Plasmodium berghei [1] came to 5.1 days; in the series with Plasmodium berghei [2] it was 0.9 days; with Plasmodium berghei [3], 0.5 days; in the series on Plasmodium berghei [4], 9.9 days; with Plasmodium berghei [5], 0.1 days.
On to `C/C(=N\NC(=S)Nc1ccccc1[N+](=O)[O-])c1ccccn1`, for which the MST was found to be 5.7 days in the series with Plasmodium berghei [1]; 0.9 days in the series with Plasmodium berghei [2]; 0.1 days in the series on Plasmodium berghei [3]; 4.5 days in the series on Plasmodium berghei [4]; 0.1 days in the series on Plasmodium berghei [5].
For `C/C(=N\NC(=S)NCCO)c1ccccn1`, the MST stood at 0.5 days in the series on Plasmodium berghei [2] and 0.3 days in the series with Plasmodium berghei [5]. Moreover, the Activity entry in the series on Mus musculus [7] is “Toxic”.
For `C/C(=N\NC(=S)Nc1ccccc1F)c1ccccn1`, the MST in the series on Plasmodium berghei [2] stood at 6.8 days; with Plasmodium berghei [3] it was 2.6 days; in the series on Plasmodium berghei [5], 0 days. The outcome in the series with Plasmodium berghei [8] was Active.
In the case of `C/C(=N\NC(=S)Nc1cccc(F)c1)c1ccccn1`, the MST with Plasmodium berghei [2] was found to be 6.6 days; with Plasmodium berghei [3] it was 5.8 days; in the series with Plasmodium berghei [5], 4.4 days. Moreover, the result with Plasmodium berghei [8] was Active.
`COc1cccc(NC(=S)N/N=C(\C)c2ccccn2)c1`: the MST turned out to be 4.3 days in the series on Plasmodium berghei [1]; 8.1 days with Plasmodium berghei [2]; 0.4 days with Plasmodium berghei [3]; 9.6 days in the series with Plasmodium berghei [4]; 0.3 days in the series on Plasmodium berghei [5].
On to `C/C(=N\NC(=S)NCc1cccc(F)c1)c1ccccn1`, for which the MST in the series on Plasmodium berghei [1] was determined as 5.8 days; with Plasmodium berghei [2], 3.4 days; in the series with Plasmodium berghei [3], 1.4 days; in the series with Plasmodium berghei [4] it was 9.4 days; in the series on Plasmodium berghei [5], 0.4 days.
As to `C/C(=N\NC(=S)Nc1ccccc1Cl)c1ccccn1`, the MST is 6.1 days with Plasmodium berghei [1]; 2.3 days with Plasmodium berghei [2]; 0.5 days in the series on Plasmodium berghei [3]; 8.1 days in the series on Plasmodium berghei [4]; 0.5 days with Plasmodium berghei [5].
